The text below walks through data of US6528517B1, “Synthesis of quinobenzoxazine analogues with topoisomerase II and quadruplex interactions for use as antineoplastic agents” (Board of Regents, The University of Texas System, priority 1998, dated 2003).

Entries after “also recorded” stand apart in the source; their conditions may differ.

For one test, the system named is B16 melanoma. The test is described as follows: Cancer cell growth inhibition assay (MTT). The test is classed as cell-based, murine. Here is the method: (§1) Exponentially growing cells in 0.1 ml medium were seeded on Day 0 in 96-well microtiter plates. On Day 1, 0.1-ml aliquots of medium containing graded concentrations test agent were added in duplicate to the cell plates. After incubation at 37° C. in a humidified incubator, the plates were centrifuged briefly (1-2 min at 1000 rpm), and 100 μl of the growth medium was removed. Cell cultures were incubated with 50 μl of 3-(4,5-dimethylthiazyl-2-yl)-2,5-diphenyltetrazolium bromide MTT, 1 mg/ml in Dubecco's PBS for 4 h at 37° C. The resulting purple formazan precipitate was solubilized with 200 μl of 0.4 N HCl in isopropyl alcohol. Absorbance was quantitated using a Bio-Rad Model 3550 microplate reader at a test wavelength of 570 nm and a reference wavelength of 630 nm. Absorbance values were transferred to a 486 personal computer, and the IC50 values were determined using the computer program EZ-ED50 (Chen et al., 1993).

The next test has as its system sea urchin embryo system. The test is described as follows: Sea urchin embryo system.
The next test concerns the target T1, human topoisomerase II (Homo sapiens, UniProt P11388).
T1 construct: purchased TopoGEN, Inc
The test is described as follows: Decatenation assay (catenated to decatenated KDNA). The test is classed as biochemical. The conditions noted are these: drug concentration that inhibits 50% of conversion of catenated to decatenated KDNA; read-out: topoisomerase II inhibition IC50. Here is the method: Kinetoplast DNA (KDNA), human topoisomerase II (170 KDa form), and DNA Unwinding Kit including supercoiled pHOT1 DNA, relaxed DNA marker, buffers, and human topoisomerase I were purchased from TopoGEN, Inc. Agarose was purchased from Fisher. Quinobenzoxazine A-62176 (S-enantiomer) was provided by Abbott Laboratories or prepared by published procedure (Chu and Maleczka, Jr., 1987).
0.25 μg of KDNA was incubated with various concentrations of the quinobenzoxazines in a 20-μl reaction mixture containing 50 mM Tris-HCl (pH 8), 120 mM KCl, 10 mM MgCl2, and 0.5 mM each of ATP, dithiothreitol, and […] BSA for 10 min. Two units of human topoisomerase II (170 KDa form) were added to the mixture, which was then incubated at 37° C. for 30 min. The reaction was terminated with 0.1 volume of stop buffer (5% sarkosyl, 0.025% bromophenol blue, and 50% glycerol). The decatenation products were analyzed on 1% agarose gels run with 0.5 μg/ml ethidium bromide. The gels were scanned by FluoroImager and analyzed by ImageQuaNT software (Molecular Dynamics).

The subject of test [1] is G-quadruplex structure formed on the HT4 template. The test can be described thus: DNA synthesis arrest assay (Taq polymerase primer extension). The test is classed as biochemical. The conditions noted are these: 55° C. Here is the method:
FIG. 12A and FIG. 12B. Compound 2b (see FIG. 3) concentration-dependent block of Taq polymerase DNA synthesis by the G-quadruplex structure formed on the HT4 template at 55° C. (A) Autoradiogram of a sequencing gel showing enhanced DNA synthesis pausing at the G-quadruplex site with increasing concentrations of 2b. Arrows indicate the positions of the full length product of DNA synthesis, the G-quadruplex pausing site, and the free primer. (B) Quantitation of the gel using ImageQuaNT software.
This assay is similar to that described by Han and co-workers (Han et al., 1999). Briefly, primers (24 nM) labeled with [γ-^32P] were mixed with template DNA (12 nM)) in a Tris-HCl buffer (10 mM Tris, pH 8.0) containing K^+ (50 mM for the HT4 template) and denatured by heating at 90° C. for 5 min. After cooling down to room temperature, 2b was added at various concentrations and incubated at room temperature for 15 min. The primer extension reactions were initiated by adding dNTP (final concentration 100 μM), MgCl2 (final concentration […]), and Taq DNA polymerase (2.5 U/reaction, Boehringer Mannheim). The products were separated on a 12% polyacrylamide sequencing gel. The gels were then dried and visualized on a PhosphorImager (Molecular Dynamics model 445 S1). […]

A further test relates to MDA-231 breast. The test can be described thus: Cancer cell growth inhibition assay (MTT). The test is classed as cell-based, human. Here is the method:
as §1

A further test concerns HT-29 colon. The test is described as follows: Cancer cell growth inhibition assay (MTT). The test is classed as cell-based, human. Here is the method: as §1
The next test relates to DU-145 prostate. The test is described as follows: Cancer cell growth inhibition assay (MTT). The test is classed as cell-based, human. Here is the method:
as §1

Another test concerns H226 non-small-cell lung. The test can be described thus: Cancer cell growth inhibition assay (MTT). The test is classed as cell-based, human. Here is the method: as §1
The test system of the next test is Raji lymphoma. The test can be described thus: Cancer cell growth inhibition assay (MTT). The test is classed as cell-based, human. Here is the method:
as §1

Another test relates to human telomerase. The test is described as follows: Telomerase inhibition assay (HeLa cell extract). The test is classed as biochemical. As to the method: The assay used crude HeLa cell extract as the source of human telomerase. It measures the incorporation of ^32P-labeled dGTP into the primer extension of human telomere synthesis (Sun et al., 1998). […] Specific examples of such dual-acting compounds include compounds 2b and 2a (FIG. 3).
The assay was performed by using 5′-end biotinylated d[TTAGGG]3 as the telomere primer. Reaction mixtures (20 μl) containing 5 μl cell lysate (S-100), 50 mM Tris-OAc (pH 8.5), 50 mM K-OAc, 1 mM MgCl2, 5 mM BME, 1 mM spermidine, 1 μM telomere primer, 1.5 μM [α-^32P]-dGTP (800 Ci/mmol), 1 mM dATP, and 1 mM dTTP were incubated at 37° C. for 1 hr, and the reactions were terminated by adding 20 μl of […] streptavidin-coated Dynabeads suspension containing 10 mM Tris-HCl (pH 7.5), 1 mM EDTA, 2M KCl, and a 500 cpm biotinylated internal control. Streptavidin-coated Dynabeads bind selectively to the desired target (5′-biotinylated primer), forming a magnetic bead-targeted complex. The complex was separated from the suspension using a Dynal MPC magnet and washed several times with 2×SSC buffer containing 0.1% SDS to eliminate [α-^32P]-dGTP background. Telomerase reaction products were separated from the magnetic beads by protein denaturation with 5.7 M guanidine-HCl at 90° C. for 30 min. After ethanol precipitation, products were resolved on denaturating 10% polyacrylamide gel.

The subject of the next test is supercoiled pHOT1 DNA. The test can be described thus: DNA unwinding assay. The test is classed as biochemical. To be noted: concentration shifting topoisomers to the middle position between relaxed and supercoiled bands. As to the method: A 22 μl mixture of 0.25 μg of supercoiled pHOT1 DNA, 5 units of topoisomerase I in topoisomerase I buffer (provided with the kit) was incubated at 37° C. for 30 min. Two μl of various concentrations of drug was added, and the incubation was continued for another 30 min. The reactions were terminated by addition of SDS to 1%. Proteinase K was added to the reaction mixtures to ca. 50 μg/ml, and the reaction mixtures were incubated for 15-20 min at 56° C. After adding 0.1 volume of 10×gel loading buffer, the reaction mixtures were extracted with an equal volume of CIA (Chloroform:isoamyl Alcohol; 24:1). The samples were loaded on an 1% agarous gel that was cast in TPE buffer (36 mM Tris-HCl, pH 7.8, 1 mM EDTA, 30 mM NaH2PO4) and 0.2 μg/ml Chloroquine. The gel was run in TPE buffer at room temperature at 10 volts for 20 h, destained in water for 15 min, stained in 0.05 μg/ml ethidium bromide for 15 min, and destained again in water for 15 min. The gel was then photographed, scanned by FluoroImager, and analyzed by ImageQuaNT software (Molecular Dynamics).

T1 sequence (P11388 whole entry): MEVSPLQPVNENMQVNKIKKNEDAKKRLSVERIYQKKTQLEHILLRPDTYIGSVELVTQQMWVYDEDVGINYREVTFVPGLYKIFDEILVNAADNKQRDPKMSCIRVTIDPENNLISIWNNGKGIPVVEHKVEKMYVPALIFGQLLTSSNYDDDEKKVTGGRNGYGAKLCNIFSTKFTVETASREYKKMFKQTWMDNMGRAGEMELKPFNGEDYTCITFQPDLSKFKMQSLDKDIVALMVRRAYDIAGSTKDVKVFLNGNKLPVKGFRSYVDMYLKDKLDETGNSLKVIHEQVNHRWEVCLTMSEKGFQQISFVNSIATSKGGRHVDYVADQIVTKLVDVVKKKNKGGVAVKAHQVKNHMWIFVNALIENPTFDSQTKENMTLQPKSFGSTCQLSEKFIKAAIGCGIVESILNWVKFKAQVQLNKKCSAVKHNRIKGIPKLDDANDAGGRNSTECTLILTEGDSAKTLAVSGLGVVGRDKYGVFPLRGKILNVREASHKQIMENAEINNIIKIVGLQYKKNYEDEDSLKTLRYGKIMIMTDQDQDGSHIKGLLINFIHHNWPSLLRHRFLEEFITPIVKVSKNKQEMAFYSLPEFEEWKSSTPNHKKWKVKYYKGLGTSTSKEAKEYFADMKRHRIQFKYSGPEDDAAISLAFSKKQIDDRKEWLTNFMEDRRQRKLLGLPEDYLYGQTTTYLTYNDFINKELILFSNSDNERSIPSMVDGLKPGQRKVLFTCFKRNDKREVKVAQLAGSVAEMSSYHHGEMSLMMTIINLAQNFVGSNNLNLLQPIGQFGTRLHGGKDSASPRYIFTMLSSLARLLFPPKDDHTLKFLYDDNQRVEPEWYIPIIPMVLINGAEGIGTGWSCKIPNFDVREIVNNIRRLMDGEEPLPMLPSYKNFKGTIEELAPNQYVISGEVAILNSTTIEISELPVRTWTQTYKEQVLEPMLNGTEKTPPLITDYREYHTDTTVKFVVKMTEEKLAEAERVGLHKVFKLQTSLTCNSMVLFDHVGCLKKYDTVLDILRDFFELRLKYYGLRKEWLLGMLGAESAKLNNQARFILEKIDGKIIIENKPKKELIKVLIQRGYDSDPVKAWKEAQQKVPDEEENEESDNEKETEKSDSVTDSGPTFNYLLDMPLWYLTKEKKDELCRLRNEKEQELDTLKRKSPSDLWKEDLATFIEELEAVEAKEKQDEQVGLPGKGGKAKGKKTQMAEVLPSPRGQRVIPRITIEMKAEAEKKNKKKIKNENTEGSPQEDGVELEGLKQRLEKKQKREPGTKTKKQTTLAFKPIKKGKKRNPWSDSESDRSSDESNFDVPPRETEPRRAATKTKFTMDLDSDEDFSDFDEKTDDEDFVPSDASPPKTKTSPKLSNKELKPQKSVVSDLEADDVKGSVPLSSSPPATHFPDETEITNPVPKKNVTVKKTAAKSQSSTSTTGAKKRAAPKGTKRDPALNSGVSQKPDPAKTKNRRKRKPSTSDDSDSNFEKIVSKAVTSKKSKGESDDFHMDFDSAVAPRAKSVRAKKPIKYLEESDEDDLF

Consider `Cl.NC1CCN(c2c(F)cc3c(=O)c(C(=O)O)cn4c3c2Oc2c-4ccc3ccccc23)C1` (stereo not drawn) [Compound 2b, 1-(3-Aminopyrrolidin-1-yl)-2-fluoro-4-oxo-4H-pyrido[3,2,1-k,l]-benzo[f]-phenoxazine-5-carboxylic Acid], for which the IC50 (commonly the concentration that inhibits the measured activity by half) with B16 melanoma stood at 20 ± 2 nM; on human topoisomerase II, 240 nM; in the test on MDA-231 breast it was 5 ± 1 nM; with HT-29 colon, 26 ± 1 nM; in the test with DU-145 prostate, 30 ± 10 nM; with H226 non-small-cell lung, 13 ± 5 nM. The compound also returned an IC50 in the test with Raji lymphoma of 34 ± 2 nM. In addition, the chromosomal aberrations result in the test with sea urchin embryo system was “cause chromosomal aberrations”. The “primer extension by Taq DNA polymerase” value in test [1] (100 μM) is on record as “completely inhibited”. Further, the “polymerase pausing at the G-quadruplex site” value in test [1] (increasing concentration) is on record as “enhanced pausing”. Moreover, in the test with human telomerase, the “telomerase inhibition (qualitative)” value is “dual-acting; also recorded: inhibit telomerase”. Also, in the test with supercoiled pHOT1 DNA, the DNA unwinding concn was 3 µM.
